Data from EPA's ToxValDB 9.5 (doi:10.2903/j.efsa.2016.4374).
Values after ≈ are worked out from the molar mass of the structure shown.

What was measured:
Anas platyrhynchos = details: acute; oral; unspecified; mortality
Apis mellifera = details: acute, duration: 48 hours, mortality
Bibionidae = details: chronic/long-term; growth
Canidae = details: subchronic; duration: 90 days; oral; Dog Other; organ weight
Cyprinus carpio = details: acute; mortality
Danio rerio = details: chronic; growth
Daphnia magna = details: chronic/long-term; reproduction
Folsomia candida = details: chronic/long-term; duration: 28 days; mortality
Hypoaspis aculeifer = details: chronic/long-term; duration: 14 days; mortality
Myriophyllum spicatum = details: acute; growth
Pleurozium sp. = details: acute; growth
Tagia sp. = details: chronic/long-term; duration: 56 days; reproduction
Typhlodromus pyri = assay: LR50; higher = less toxic; details: not reported; mortality

## CCOC1Oc2ccc(OS(C)(=O)=O)cc2C1(C)C (centres undefined) [Ethofumesate]
Anas platyrhynchos
  LD50: 3780 mg/kg-day
Apis mellifera; dermal
  LD50: > 50 µg/piece
Apis mellifera; oral, unspecified
  LD50: > 50 µg/piece
Bibionidae
  NOEC: 3.82 mg/L
Canidae
  NOAEL: 250 mg/kg-day
Colinus virginianus; acute, oral, mortality
  LD50: 3780 mg/kg-day
Colinus virginianus; reproduction developmental
  NOEL: 265 mg/kg-day
Cyprinus carpio
  LC50: 10.9 µg/mL (≈ 38.1 µM)
Danio rerio
  NOEC: 0.156 mg/L
Daphnia magna
  NOEC: 0.25 mg/L
Folsomia candida
  NOEC: 13.3 mg/kg
Hypoaspis aculeifer
  NOEC: 22.1 mg/kg
Myriophyllum spicatum
  NOEC: 0.25 mg/L
Pleurozium sp.
  NOEC: 9.68 mg/L
Rattus norvegicus; acute, oral, mortality
  LD50: > 5000 mg/kg-day
Rattus norvegicus; chronic, duration: 2 years, oral, F, organ weight
  NOAEL: 101 mg/kg-day
Rattus norvegicus; reproduction developmental, body weight
  NOAEL: 60.9 mg/kg-day
Tagia sp.
  NOEC: 12.5 mg/kg
Typhlodromus pyri
  LR50: > 1000 g/ha
